According to article PMC6995558, “Biological Evaluation, Molecular Docking, and SAR Studies of Novel 2-(2,4-Dihydroxyphenyl)-1H- Benzimidazole Analogues” (Biomolecules, 2019):
Where two headings read alike, the source gives them in different places.

Assays:
[1] = target: T1, Acetylcholinesterase (AChE, E.C. 3.1.1.7, from human erythrocytes) (Homo sapiens, UniProt P22303); assay: biochemical; type: biochemical; settings: for Selectivity for AChE: IC50(BuChE)/IC50(AChE); for IC50: means ± SD of three independent experiments
T1 construct: Acetylcholinesterase (AChE, E.C. 3.1.1.7, from human erythrocytes); purchased Sigma-Aldrich (Steinheim, Germany); host or cells: human erythrocytes (natural source)
Method: (§1) The details were described previously.
(§2) Their potency was determined using the modified Ellman’s method and expressed as the half of maximal inhibitory concentration, IC50 [34].

[2] = target: T2, butyrylcholinesterase (BuChE, E.C. 3.1.1.8, from equine serum) (Equus caballus, UniProt P81908); assay: biochemical
T2 construct: butyrylcholinesterase (BuChE, E.C. 3.1.1.8, from equine serum); purchased Sigma-Aldrich (Steinheim, Germany); host or cells: equine serum (natural source)
Method: as §1, §2

[3] = In vitro antioxidant activity assay (DPPH radical scavenging); settings: DPPH 100 μM in methanol, 37 °C, 30 min; means ± SD of three experiments; read-out: IC50(DPPH) radical scavenging effect
Method: Antioxidant activity of each compound and standards (rutin) was assessed based on the radical scavenging effect of stable DPPH free radical. An amount of 10 μL of each tested compound or standard series of different concentrations (from 0.0 to 100 µM) was added to 9 mL of methanol solution of 2,2-diphenyl-1-picrylhydrazyl (DPPH) (100 μM). After incubation at 37 °C for 30 min, decrease in the absorbance of each solution was measured at 520 nm. The absorbance of the blank sample containing the same amount of DMSO and DPPH solution was also prepared and measured. All experiments were conducted in triplicate. The scavenging potential was compared with a solvent control (0% radical scavenging) and the standard compound. Radical scavenging activity (%AA) was calculated by the following formula: (%AA) = [(A0 − A1)/A0] × 100%(3) in which (A0) is the absorbance of the blank sample and (A1) is the absorbance of the tested compound (t = 30 min).
Reactive oxygen species are a causal factor in the process of aging and the cumulative damage has been associated with AD [45]. In this study, the DPPH radical scavenging activity of the newly synthesized compounds was estimated using the Brand-Williams method.

[4] = RP-18 HPLC chromatography lipophilicity estimation; type: physicochemical; settings: for −S (slope): methanol/acetate buffer pH 4.0; for log kw (intercept): methanol/acetate buffer pH 4.0, extrapolated to pure water
Method: The Eurosil Bioselect C18 (5 μm, 300 × 4.6 mm) column was used as the stationary phase. The mobile phase consisted of different volume mixtures of methanol and 20 mM acetate buffer as the aqueous phase to give pH 4.0. The organic modifier concentration ranged from 0.30 to 0.75, depending on the structure of the compound at 0.05 (0.1) intervals. The flow rate was 0.5 cm^3·min^−1 at room temperature. Measurements were made at 292 nm. The retention time of an unretained solute (t0) was determined by the injection of a small amount of acetone dissolved in water. […] This is described by the Soczewiński–Wachtmeister dependence: log k = log kw + S (% organic modifier)(1) in which log kw is the retention factor of a solute with pure water as the mobile phase (intercept) and S is the regression curve (slope). The log k values were calculated as log k = log (tR − t0)/t0, where tR is the retention time of a solute and t0 is the retention time of an unretained solute.
To find the structure–activity relationships, some quantities of the compounds were estimated (Table 5). They included the lipophilicity parameter log kw obtained by RP-HPLC and calculated in silico log P, the topological polar surface area (tPSA), and the molar refractivity (MR) (Table 5). The log kw and S parameters obtained by the extrapolation technique are commonly used as lipophilicity descriptors.

[5] = target: T3, Amyloid β-peptide (1–42) (Aβ42) (Homo sapiens, UniProt P05067); assay: biochemical; settings: ThT fluorescence, 24 h at 37 °C; means ± SD of three experiments; read-out: IC50(Aβ(1–42)) self-induced aggregation
T3 construct: Amyloid β-peptide, (1–42) (Aβ42), was purchased from Aldrich; purchased Aldrich
Method: Amyloid β-peptide, (1–42) (Aβ42), was purchased from Aldrich. Aβ42 was diluted in the phosphate buffer (pH 8.0) to obtain a 125.8 µM solution. The compounds under study were first dissolved in a small amount of methanol, and then further diluted in the phosphate buffer to the final concentration of 5–160 μM. To study the Aβ42 aggregation inhibition, the fluorescence emission of thioflavin T (ThT) was followed with curcumin as the reference compound [35, 36]. At first, the Aβ42 (10 μL) samples and the tested compounds (10 μL) were diluted with the phosphate buffer (60 μL) and then they were incubated for 24 h at 37 °C without stirring. As for the control, a sample of the peptide was incubated without the inhibitor. The tests were carried out in black, flat-bottom, 96-well plates. Then 20 µL of 2.5 µM ThT in 50 mM glycine–NaOH (pH 8.5) was added and incubated for 5 min. Fluorescence was monitored with the excitation at 446 nm and the emission at 490 nm. A time scan of fluorescence was performed and the intensity values reached the plateau (300 s). […]. The reported values were obtained as the mean ± SD of triplicate of three independent experiments.
Nowadays, the amyloid hypothesis has become the dominating paradigm for understanding AD [44]. Aβ(1–42) is the most amyloidogenic Aβ fragment found in the AD plaques. […].

AChE = settings: Figure 1; cited from earlier work
[6] = means ± SD of three experiments, read-out: BuChE IC50

T1 sequence (P22303 32-617 isoform P22303-2 limits assumed): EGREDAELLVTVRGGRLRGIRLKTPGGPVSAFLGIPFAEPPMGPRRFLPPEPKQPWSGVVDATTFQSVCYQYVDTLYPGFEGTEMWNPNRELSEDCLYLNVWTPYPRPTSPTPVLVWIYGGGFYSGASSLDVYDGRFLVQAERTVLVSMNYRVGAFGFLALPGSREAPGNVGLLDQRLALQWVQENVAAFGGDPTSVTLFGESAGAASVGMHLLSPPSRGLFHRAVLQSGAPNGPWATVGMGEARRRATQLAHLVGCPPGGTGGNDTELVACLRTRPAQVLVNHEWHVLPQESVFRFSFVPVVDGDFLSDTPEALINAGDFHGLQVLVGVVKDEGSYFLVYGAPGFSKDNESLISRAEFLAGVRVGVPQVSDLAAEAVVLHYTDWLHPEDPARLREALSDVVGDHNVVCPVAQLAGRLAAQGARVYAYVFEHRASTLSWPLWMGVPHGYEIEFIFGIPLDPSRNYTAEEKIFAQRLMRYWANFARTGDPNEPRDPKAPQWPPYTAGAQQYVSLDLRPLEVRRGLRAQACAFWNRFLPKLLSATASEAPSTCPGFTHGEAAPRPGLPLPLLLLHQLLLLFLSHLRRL
T2 sequence (P81908 whole entry): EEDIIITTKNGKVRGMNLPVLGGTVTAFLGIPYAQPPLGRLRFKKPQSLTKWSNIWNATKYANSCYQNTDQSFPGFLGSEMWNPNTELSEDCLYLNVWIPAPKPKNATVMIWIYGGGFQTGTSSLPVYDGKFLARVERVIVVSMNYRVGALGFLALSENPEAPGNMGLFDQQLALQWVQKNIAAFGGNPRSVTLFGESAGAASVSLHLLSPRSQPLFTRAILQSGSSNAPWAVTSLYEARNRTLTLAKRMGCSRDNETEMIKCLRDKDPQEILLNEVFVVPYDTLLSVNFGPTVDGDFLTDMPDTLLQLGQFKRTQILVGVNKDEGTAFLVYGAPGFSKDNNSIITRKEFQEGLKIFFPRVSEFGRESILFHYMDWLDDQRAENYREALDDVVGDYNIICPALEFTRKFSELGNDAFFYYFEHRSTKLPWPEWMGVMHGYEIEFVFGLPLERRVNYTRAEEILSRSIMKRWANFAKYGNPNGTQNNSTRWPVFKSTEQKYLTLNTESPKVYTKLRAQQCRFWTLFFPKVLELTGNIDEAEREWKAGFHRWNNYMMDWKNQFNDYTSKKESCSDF
T3 sequence (P05067 672-713 limits assumed): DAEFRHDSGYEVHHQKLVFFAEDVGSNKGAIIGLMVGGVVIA

Structure (SMILES)	Selectivity for AChE [1]	IC50 [1]	IC50 [2, 6]	IC50 [3]	−S (slope) [4]	log kw (intercept) [4]	Selectivity for AChE with respect to BuChE (in words) [1]	IC50 [5]	Activity against AChE (in words) [1]	IC50 (AChE)	IC50 [2]
Oc1cc(O)c(-c2nc3cc(Cl)c(Cl)cc3[nH]2)cc1Cl [Compound 2, 4-(5,6-Dichloro-1H-benzimidazol-2-yl)-6-chlorobenzene-1,3-diol]	41.9	541 ± 36 nM	22690 ± 78 nM	213 ± 80 nM	5.770	5.460					
Cc1c(O)ccc(-c2nc3ccc(C(F)(F)F)cc3[nH]2)c1O [Compound 3, 4-[6-(Trifluoromethyl)-1H-benzimidazol-2-yl]-2-methylbenzene-1,3-diol]	143.1	98 ± 5 nM	14020 ± 111 nM		6.299	5.720					
CCc1cc(-c2nc3cc(C(F)(F)F)cc(Cl)c3[nH]2)c(O)cc1O [Compound 4, 4-(7-Chloro-5-(trifluoromethyl)-1H-benzimidazol-2-yl)-6-ethylbenzene-1,3-diol]	390.0	118 ± 9 nM	46030 ± 104 nM		4.635	4.237	highly selective				
COc1ccc2nc(-c3cc(Cl)c(O)cc3O)[nH]c2c1 [Compound 6, 4-(6-Methoxy-1H-benzimidazol-2-yl)-6-chlorobenzene-1,3-diol]	203.4	92 ± 2 nM	18710 ± 173 nM	362 ± 10 nM	5.390	4.808	highly selective	27000 ± 2290 nM			
COc1ccc2nc(-c3ccc(O)c(O)c3O)[nH]c2c1 [Compound 7, 4-(6-Methoxy-1H-benzimidazol-2-yl)benzene-1,2,3-triol]		> 500000 nM	> 500000 nM		3.870	3.589			inactive		
CCOC(=O)c1ccc2[nH]c(-c3ccc(O)c(C)c3O)nc2c1 [Compound 8, Ethyl 2-(2,4-dihydroxy-3-methylphenyl)-1H-benzimidazole-5-carboxylate]	137.8	184 ± 22 nM	25350 ± 232 nM	125 ± 60 nM	4.097	2.566					
CCOC(=O)c1ccc2[nH]c(-c3cc(CC)c(O)cc3O)nc2c1 [Compound 9, Ethyl 2-(5-ethyl-2,4-dihydroxyphenyl)-1H-benzimidazole-5-carboxylate]	45.6	962 ± 23 nM	43860 ± 381 nM		4.160	3.067					
CCOC(=O)c1ccc2[nH]c(-c3c(O)cc(O)cc3O)nc2c1 [Compound 10, Ethyl 2-(2,4,6-trihydroxyphenyl)-1H-benzimidazole-5-carboxylate]		> 500000 nM	> 500000 nM		3.237	2.088			inactive		
Cc1c(O)ccc(-c2nc3ccc(C#N)cc3[nH]2)c1O [Compound 11, 2-(2,4-Dihydroxy-3-methylphenyl)-1H-benzimidazole-6-carbonitrile]		> 500000 nM	> 500000 nM		3.867	3.590					
CCc1cc(-c2nc3ccc(C#N)cc3[nH]2)c(O)cc1O [Compound 12, 2-(5-Ethyl-2,4-dihydroxyphenyl)-1H-benzimidazole-6-carbonitrile]		> 500000 nM	> 500000 nM	209 ± 20 nM	4.854	3.360					
O=[N+]([O-])c1ccc2nc(-c3ccc(O)cc3O)[nH]c2c1 [Compound 13, 4-(6-Nitro-1H-benzimidazol-2-yl)benzene-1,3-diol]	71.7	1490 ± 118 nM	106600 ± 201 nM		4.655	2.475					
Cc1c(O)ccc(-c2nc3ccc([N+](=O)[O-])cc3[nH]2)c1O [Compound 14, 2-Methyl-4-(6-nitro-1H-benzimidazol-2-yl)benzene-1,3-diol]	88.1	1000 ± 196 nM	88360 ± 155 nM		4.596	2.674					
Oc1ccc(-c2nc3ccccc3[nH]2)c(O)c1 [bib-1,3-diol, 4-(1H-benzimidazol-2-yl)benzene-1,3-diol, reference compound]	109.2	284 ± 14 nM	31020 ± 133 nM		2.979	1.732					
Clc1ccc2[nH]c(-c3ccc(OCCN4CCCCC4)cc3)nc2c1 [compound a]										130 nM	
CCN(CC)Cc1cc(-c2nc3cc([N+](=O)[O-])ccc3[nH]2)ccc1O [compound b]										930 nM	
CN1c2c(nn(-c3ccc(-c4nc5ccccc5[nH]4)cc3)c2-c2ccccc2)-c2ccccc2S1(=O)=O [compound f]										11 nM	
O=C1c2ccccc2C(=O)N1CCCn1c[n+](Cc2cccc3ccccc23)c2ccccc21 [d]										56 nM	
C=Cc1ccc(C[n+]2cn(C)c3ccccc32)cc1 [e]										45 nM	
CN(C)C(=O)Oc1cccc([N+](C)(C)C)c1 [neostigmine, reference compound]											68 ± 5 nM
C[C@@H]1O[C@@H](OC[C@H]2O[C@@H](Oc3c(-c4ccc(O)c(O)c4)oc4cc(O)cc(O)c4c3=O)[C@H](O)[C@@H](O)[C@@H]2O)[C@H](O)[C@H](O)[C@H]1O [rutin, reference compound]				87 ± 40 nM							
